Laboratory results from patent publication US20080145876A1, “POLY(ETHYLENE GLYCOL) ANTI-BODY DETECTION ASSAYS AND KITS FOR PERFORMING THEREOF” (University of Southern California, priority 2006, published 2008).

Tests used:
[1] = test system: anti-PEG; assay: Inhibition of PEG-RBC agglutination by polymers/small ethers added to anti-PEG positive sera (anti-PEG epitope study, tube test); assay type: binding, human; settings: for Agglutination Score of PEG-RBCs: compound added at 1% w/v, PBS control 4+; for Effect on PEG-RBC agglutination (inhibition): three 4+ anti-PEG positive sera, 1% (w/v) final concentration
Method: One drop of RBCs (PEG-coated or control (uncoated) RBCs) at 5% hct were added to 2 drops of plasma. Samples were incubated at room temperature for 15 minutes and then centrifuged at 1000×g for 1 minute. Agglutination of PEG-coated or uncoated (control) RBCs by each plasma sample was scored according to the 0-4+ scale.
The polymer and small ether solutions were added to anti-PEG positive sera at a 1:1 (v/v) ratio giving a final polymer/small ether concentration of 1% (w/v) and incubated for 30 minutes at room temperature. […] Inhibition of agglutination by the smallest ether molecule tested determined the anti-PEG epitope.

[2] = ASNase activity in sera of PEG-ASNase-treated ALL patients (microplate technique) versus anti-PEG status; assay type: in vivo, human
Method: Stored serum samples were collected from 28 pediatric acute lymphoblastic leukemia (ALL) patients who received the chemotherapy agent, PEG-conjugated asparaginase (PEG-ASNase). Sera were assayed for ASNase activity using a microplate technique. Testing for anti-PEG was performed by serology as described in Example 1 and by flow cytometry as described in Example 3.

For COCCOCCOCCOCCOC [Tetraethylene Glycol Dimethyl Ether], the “Agglutination Score of PEG-RBCs” value ([1]; Anti-PEG Positive Donor A) was 0^, the “Agglutination Score of PEG-RBCs” value ([1]; Anti-PEG Positive Donor B) was 0^ and the “Agglutination Score of PEG-RBCs” value ([1]; Anti-PEG Positive Donor C) was 0^. The “Effect on PEG-RBC agglutination (inhibition)” value (“Effect … (inhibition)” below) [1] was “Complete inhibition of agglutination”.

In the case of COCCOCCOCCOC [Triethylene Glycol Dimethyl Ether], the “Agglutination Score of PEG-RBCs” value ([1]; Anti-PEG Positive Donor A) is reported as 0^, the “Agglutination Score of PEG-RBCs” value ([1]; Anti-PEG Positive Donor B) is reported as 0^ and the “Agglutination Score of PEG-RBCs” value ([1]; Anti-PEG Positive Donor C) is reported as 0^. The “Effect … (inhibition)” value [1] was “Complete inhibition of agglutination”.

In the case of OCCO [Ethlyene Glycol], the “Effect … (inhibition)” value [1] is reported as “no effect”.

With CCOCCOCCOCC [Diethylene Glycol Diethyl Ether] the “Effect … (inhibition)” value [1] was “reduced PEG-RBC agglutination (4+ to 2+)”.

In the case of OCCOCCOCCO [Triethylene Glycol], the “Effect … (inhibition)” value [1] is reported as “no effect”.

For OCCOCCO [Diethylene Glycol], the “Effect … (inhibition)” value [1] was “no effect”.

B1: PEG-asparaginase: chemotherapy agent, PEG-conjugated asparaginase (PEG-ASNase) (conjugate, UniProt P00805 23-348, looked up)
L-asparaginase 2: LPNITILATGGTIAGGGDSATKSNYTVGKVGVENLVNAVPQLKDIANVKGEQVVNIGSQDMNDNVWLTLAKKINTDCDKTDGFVITHGTDTMEETAYFLDLTVKCDKPVVMVGAMRPSTSMSADGPFNLYNAVVTAADKASANRGVLVVMNDTVLDGRDVTKTNTTDVATFKSVNYGPLGYIHNGKIDYQRTPARKHTSDTPFDVSKLNELPKVGIVYNYANASDLPAKALVDAGYDGIVSAGVGNGNLYKSVFDTLATAAKTGTAVVRSSRVPTGATTQDAEVDDAKYGFVASGTLNPQKARVLLQLALTQTKDPQQIQQIFNQY
modifications: PEG conjugate
With B1 the “mean ASNase activity” value ([2]; IgM anti-PEG positive patients by flow cytometry (n=13)) was 12 U/L, the ASNase activity ([2]; all anti-PEG positive patient sera, serology or flow cytometry) was “low or undetectable” and the “mean ASNase activity” value ([2]; anti-PEG negative patients by flow cytometry (n=15)) was 438 U/L. For the same molecule, the “mean ASNase activity” value ([2]; anti-PEG negative patients by serology (n=19)) was 353 U/L, the ASNase activity ([2]; anti-PEG positive patients by serology (n=9)) was “undetectable” and the ASNase activity ([2]; one anomalous sample, weakly positive for anti-PEG IgM and positive for anti-ASNase) was 123 U/L.
